# Reference: ChEMBL document CHEMBL1671626, “In vitro profiling of ceftaroline against a collection of recent bacterial clinical isolates from across the United States” (2008)
# Assays:
# Format in all cases: functional
# Staphylococcus aureus [1] = assay: Antibacterial activity against methicillin-susceptible Staphylococcus aureus assessed as susceptible isolates by CLSI M7-A7 broth microdilution method
# Staphylococcus aureus [2] = assay: Antibacterial activity against coagulase-negative and oxacillin-resistant Staphylococcus aureus assessed as susceptible isolates by CLSI M7-A7 broth microdilution method
# Staphylococcus aureus [3] = assay: Antibacterial activity against methicillin-resistant Staphylococcus aureus by CLSI M7-A7 broth microdilution method
# Enterococcus faecium [4] = assay: Antibacterial activity against vancomycin-resistant Enterococcus faecium by CLSI M7-A7 broth microdilution method
# Staphylococcus aureus [5] = assay: Antibacterial activity against methicillin-resistant Staphylococcus aureus assessed as resistant isolates by CLSI M7-A7 broth microdilution method
# Streptococcus pyogenes [6] = assay: Antibacterial activity against erythromycin-susceptible Streptococcus pyogenes assessed as susceptible isolates by CLSI M7-A7 broth microdilution method
# Streptococcus viridans [7] = assay: Antibacterial activity against penicillin-susceptible Streptococcus viridans assessed as susceptible isolates by CLSI M7-A7 broth microdilution method
# Staphylococcus aureus [8] = assay: Antibacterial activity against methicillin-resistant Staphylococcus aureus assessed as susceptible isolates by CLSI M7-A7 broth microdilution method
# Streptococcus pyogenes [9] = assay: Antibacterial activity against erythromycin-nonsusceptible Streptococcus pyogenes by CLSI M7-A7 broth microdilution method
# Streptococcus viridans [10] = assay: Antibacterial activity against penicillin-nonsusceptible Streptococcus viridans by CLSI M7-A7 broth microdilution method
# Staphylococcus aureus [11] = assay: Antibacterial activity against coagulase-negative and oxacillin-susceptible Staphylococcus aureus by CLSI M7-A7 broth microdilution method
# Staphylococcus aureus [12] = assay: Antibacterial activity against coagulase-negative and oxacillin-resistant Staphylococcus aureus assessed as resistant isolates by CLSI M7-A7 broth microdilution method
# Streptococcus pyogenes [13] = assay: Antibacterial activity against erythromycin-nonsusceptible Streptococcus pyogenes assessed as susceptible isolates by CLSI M7-A7 broth microdilution method
# Staphylococcus aureus [14] = assay: Antibacterial activity against methicillin-susceptible Staphylococcus aureus assessed as resistant isolates by CLSI M7-A7 broth microdilution method
# Staphylococcus aureus [15] = assay: Antibacterial activity against methicillin-susceptible Staphylococcus aureus by CLSI M7-A7 broth microdilution method
# Staphylococcus aureus [16] = assay: Antibacterial activity against coagulase-negative and oxacillin-resistant Staphylococcus aureus by CLSI M7-A7 broth microdilution method
# Enterococcus faecalis [17] = assay: Antibacterial activity against vancomycin-resistant Enterococcus faecalis by CLSI M7-A7 broth microdilution method
# Streptococcus agalactiae [18] = assay: Antibacterial activity against erythromycin-nonsusceptible Streptococcus agalactiae assessed as susceptible isolates by CLSI M7-A7 broth microdilution method
# Streptococcus viridans [19] = assay: Antibacterial activity against penicillin-nonsusceptible Streptococcus viridans assessed as susceptible isolates by CLSI M7-A7 broth microdilution method
# Pasteurella multocida = assay: Antibacterial activity against Pasteurella multocida by CLSI M7-A7 broth microdilution method
# Enterococcus faecalis [20] = assay: Antibacterial activity against vancomycin-resistant Enterococcus faecalis assessed as resistant isolates by CLSI M7-A7 broth microdilution method
# Streptococcus viridans [21] = assay: Antibacterial activity against penicillin-nonsusceptible Streptococcus viridans assessed as resistant isolates by CLSI M7-A7 broth microdilution method
# Streptococcus agalactiae [22] = assay: Antibacterial activity against erythromycin-susceptible Streptococcus agalactiae assessed as susceptible isolates by CLSI M7-A7 broth microdilution method
# Streptococcus pyogenes [23] = assay: Antibacterial activity against erythromycin-susceptible Streptococcus pyogenes by CLSI M7-A7 broth microdilution method
# Moraxella catarrhalis = assay: Antibacterial activity against beta lactamase-positive Moraxella catarrhalis by CLSI M7-A7 broth microdilution method
# Enterococcus faecium [24] = assay: Antibacterial activity against vancomycin-resistant Enterococcus faecium assessed as resistant isolates by CLSI M7-A7 broth microdilution method
# Enterococcus faecalis [25] = assay: Antibacterial activity against vancomycin-susceptible Enterococcus faecalis by CLSI M7-A7 broth microdilution method
# Enterococcus faecalis [26] = assay: Antibacterial activity against vancomycin-susceptible Enterococcus faecalis assessed as susceptible isolates by CLSI M7-A7 broth microdilution method
# Streptococcus agalactiae [27] = assay: Antibacterial activity against erythromycin-nonsusceptible Streptococcus agalactiae by CLSI M7-A7 broth microdilution method
# Staphylococcus aureus [28] = assay: Antibacterial activity against coagulase-negative and oxacillin-susceptible Staphylococcus aureus assessed as susceptible isolates by CLSI M7-A7 broth microdilution method
# Staphylococcus aureus [29] = assay: Antibacterial activity against coagulase-negative and oxacillin-susceptible Staphylococcus aureus assessed as resistant isolates by CLSI M7-A7 broth microdilution method
# Streptococcus agalactiae [30] = assay: Antibacterial activity against erythromycin-susceptible Streptococcus agalactiae by CLSI M7-A7 broth microdilution method
# Streptococcus viridans [31] = assay: Antibacterial activity against penicillin-susceptible Streptococcus viridans by CLSI M7-A7 broth microdilution method
# Enterococcus faecium [32] = assay: Antibacterial activity against vancomycin-resistant Enterococcus faecium assessed as susceptible isolates by CLSI M7-A7 broth microdilution method
# Enterococcus faecalis [33] = assay: Antibacterial activity against vancomycin-susceptible Enterococcus faecalis assessed as resistant isolates by CLSI M7-A7 broth microdilution method
# Streptococcus pneumoniae [34] = assay: Antibacterial activity against penicillin-resistant Streptococcus pneumoniae by CLSI M7-A7 broth microdilution method
# Streptococcus pneumoniae [35] = assay: Antibacterial activity against penicillin-susceptible Streptococcus pneumoniae assessed as susceptible isolates by CLSI M7-A7 broth microdilution method
# Streptococcus pneumoniae [36] = assay: Antibacterial activity against penicillin-resistant Streptococcus pneumoniae assessed as susceptible isolates by CLSI M7-A7 broth microdilution method
# Enterococcus faecalis [37] = assay: Antibacterial activity against vancomycin-resistant Enterococcus faecalis assessed as susceptible isolates by CLSI M7-A7 broth microdilution method
# Streptococcus pneumoniae [38] = assay: Antibacterial activity against penicillin-susceptible Streptococcus pneumoniae by CLSI M7-A7 broth microdilution method
smiles,measurement,setting,value
CC1(C)S[C@@H]2[C@H](NC(=O)Cc3ccccc3)C(=O)N2[C@H]1C(=O)O [PENICILLIN G],Activity,Staphylococcus aureus [1],16.7%
same,Activity,Staphylococcus aureus [2],2.3%
same,MIC50,Staphylococcus aureus [3],> 16 µg/mL
same,MIC,Enterococcus faecium [4],> 16 µg/mL
same,MIC50,Enterococcus faecium [4],> 16 µg/mL
same,MIC90,Enterococcus faecium [4],> 16 µg/mL
same,Activity,Staphylococcus aureus [5],99.5%
same,Activity,Streptococcus pyogenes [6],98.9%
same,Activity,Streptococcus viridans [7],100%
same,Activity,Staphylococcus aureus [8],0.5%
same,MIC,Streptococcus pyogenes [9],≤ 0.12 µg/mL
same,MIC50,Streptococcus pyogenes [9],≤ 0.12 µg/mL
same,MIC90,Streptococcus pyogenes [9],≤ 0.12 µg/mL
same,MIC50,Streptococcus viridans [10],0.5 µg/mL
same,MIC90,Streptococcus viridans [10],8 µg/mL
same,MIC50,Staphylococcus aureus [11],0.5 µg/mL
same,MIC90,Staphylococcus aureus [11],2 µg/mL
same,Activity,Staphylococcus aureus [12],97.7%
same,Activity,Streptococcus pyogenes [13],100%
same,Activity,Staphylococcus aureus [14],83.3%
same,MIC50,Staphylococcus aureus [15],4 µg/mL
same,MIC90,Staphylococcus aureus [15],> 16 µg/mL
same,MIC50,Staphylococcus aureus [16],8 µg/mL
same,MIC50,Enterococcus faecalis [17],2 µg/mL
same,MIC90,Enterococcus faecalis [17],4 µg/mL
same,Activity,Streptococcus agalactiae [18],95.2%
same,Activity,Streptococcus viridans [19],0%
same,MIC50,Pasteurella multocida,≤ 0.12 µg/mL
same,MIC90,Pasteurella multocida,0.25 µg/mL
same,Activity,Enterococcus faecalis [20],0%
same,Activity,Streptococcus viridans [21],28.6%
same,Activity,Streptococcus agalactiae [22],100%
same,MIC,Streptococcus pyogenes [23],≤ 0.12 µg/mL
same,MIC50,Streptococcus pyogenes [23],≤ 0.12 µg/mL
same,MIC90,Streptococcus pyogenes [23],≤ 0.12 µg/mL
same,MIC50,Moraxella catarrhalis,4 µg/mL
same,MIC90,Moraxella catarrhalis,16 µg/mL
same,Activity,Enterococcus faecium [24],100%
same,MIC50,Enterococcus faecalis [25],2 µg/mL
same,MIC90,Enterococcus faecalis [25],4 µg/mL
same,Activity,Enterococcus faecalis [26],100%
same,MIC,Streptococcus agalactiae [27],≤ 0.12 µg/mL
same,MIC50,Streptococcus agalactiae [27],≤ 0.12 µg/mL
same,MIC90,Streptococcus agalactiae [27],≤ 0.12 µg/mL
same,Activity,Staphylococcus aureus [28],32.3%
same,Activity,Staphylococcus aureus [29],67.7%
same,MIC,Streptococcus agalactiae [30],≤ 0.12 µg/mL
same,MIC50,Streptococcus agalactiae [30],≤ 0.12 µg/mL
same,MIC90,Streptococcus agalactiae [30],≤ 0.12 µg/mL
same,MIC,Streptococcus viridans [31],≤ 0.12 µg/mL
same,MIC50,Streptococcus viridans [31],≤ 0.12 µg/mL
same,MIC90,Streptococcus viridans [31],≤ 0.12 µg/mL
same,Activity,Enterococcus faecium [32],0%
same,Activity,Enterococcus faecalis [33],0%
CN[C@H](CC(C)C)C(=O)N[C@H]1C(=O)N[C@@H](CC(N)=O)C(=O)N[C@H]2C(=O)N[C@H]3C(=O)N[C@H](C(=O)N[C@H](C(=O)O)c4cc(O)cc(O)c4-c4cc3ccc4O)[C@H](O)c3ccc(c(Cl)c3)Oc3cc2cc(c3O[C@@H]2O[C@H](CO)[C@@H](O)[C@H](O)[C@H]2O[C@H]2C[C@](C)(N)[C@H](O)[C@H](C)O2)Oc2ccc(cc2Cl)[C@H]1O [VANCOMYCIN],MIC50,Staphylococcus aureus [3],1 µg/mL
same,MIC90,Staphylococcus aureus [3],1 µg/mL
same,MIC,Enterococcus faecium [4],> 16 µg/mL
same,MIC50,Enterococcus faecium [4],> 16 µg/mL
same,MIC90,Enterococcus faecium [4],> 16 µg/mL
same,Activity,Staphylococcus aureus [5],0.3%
same,Activity,Streptococcus pyogenes [6],100%
same,Activity,Streptococcus viridans [7],100%
same,MIC50,Streptococcus pneumoniae [34],0.25 µg/mL
same,MIC90,Streptococcus pneumoniae [34],0.5 µg/mL
same,MIC,Streptococcus pyogenes [9],0.25 µg/mL
same,MIC50,Streptococcus pyogenes [9],0.25 µg/mL
same,MIC90,Streptococcus pyogenes [9],0.5 µg/mL
same,MIC,Streptococcus viridans [10],0.5 µg/mL
same,MIC50,Streptococcus viridans [10],0.5 µg/mL
same,MIC90,Streptococcus viridans [10],1 µg/mL
same,MIC50,Staphylococcus aureus [11],1 µg/mL
same,MIC90,Staphylococcus aureus [11],2 µg/mL
same,Activity,Staphylococcus aureus [12],0%
same,Activity,Streptococcus pneumoniae [35],100%
same,Activity,Streptococcus pyogenes [13],100%
same,Activity,Staphylococcus aureus [14],0%
same,MIC50,Staphylococcus aureus [15],0.5 µg/mL
same,MIC90,Staphylococcus aureus [15],1 µg/mL
same,MIC50,Staphylococcus aureus [16],1 µg/mL
same,MIC90,Staphylococcus aureus [16],2 µg/mL
same,MIC,Enterococcus faecalis [17],> 16 µg/mL
same,MIC50,Enterococcus faecalis [17],> 16 µg/mL
same,MIC90,Enterococcus faecalis [17],> 16 µg/mL
same,Activity,Streptococcus agalactiae [18],100%
same,Activity,Streptococcus viridans [19],92.9%
same,Activity,Streptococcus pneumoniae [36],100%
same,Activity,Enterococcus faecalis [20],100%
same,Activity,Streptococcus agalactiae [22],100%
same,MIC,Streptococcus pyogenes [23],0.25 µg/mL
same,MIC50,Streptococcus pyogenes [23],0.25 µg/mL
same,MIC90,Streptococcus pyogenes [23],0.5 µg/mL
same,Activity,Enterococcus faecium [24],100%
same,MIC50,Enterococcus faecalis [25],1 µg/mL
same,MIC90,Enterococcus faecalis [25],2 µg/mL
same,Activity,Enterococcus faecalis [26],100%
same,Activity,Enterococcus faecalis [37],0%
same,MIC50,Streptococcus agalactiae [27],0.5 µg/mL
same,MIC90,Streptococcus agalactiae [27],0.5 µg/mL
same,Activity,Staphylococcus aureus [29],0%
same,MIC50,Streptococcus agalactiae [30],0.5 µg/mL
same,MIC90,Streptococcus agalactiae [30],0.5 µg/mL
same,MIC50,Streptococcus viridans [31],0.5 µg/mL
same,MIC90,Streptococcus viridans [31],0.5 µg/mL
same,MIC50,Streptococcus pneumoniae [38],0.25 µg/mL
same,MIC90,Streptococcus pneumoniae [38],0.5 µg/mL
same,Activity,Enterococcus faecium [32],0%
same,Activity,Enterococcus faecalis [33],0%
